From PMC3260189, “The Location and Nature of General Anesthetic Binding Sites on the Active Conformation of Firefly Luciferase; A Time Resolved Photolabeling Study” (PLoS ONE, 2012)

Columns and labels:
[1] = molecular target: T1, American firefly luciferase (Photinus pyralis, UniProt P08659); assay: stopped-flow inhibition of initial light output; type: biochemical
T1 construct: recombinant luciferase

[2] = molecular target: T2, Japanese firefly luciferase (Nipponoluciola cruciata, UniProt P13129); assay: [3H] photoincorporation and time-resolved photolabeling with LC-MSMS; type: binding
T2 construct: recombinant luciferase
T2 sequence (P13129 1-548): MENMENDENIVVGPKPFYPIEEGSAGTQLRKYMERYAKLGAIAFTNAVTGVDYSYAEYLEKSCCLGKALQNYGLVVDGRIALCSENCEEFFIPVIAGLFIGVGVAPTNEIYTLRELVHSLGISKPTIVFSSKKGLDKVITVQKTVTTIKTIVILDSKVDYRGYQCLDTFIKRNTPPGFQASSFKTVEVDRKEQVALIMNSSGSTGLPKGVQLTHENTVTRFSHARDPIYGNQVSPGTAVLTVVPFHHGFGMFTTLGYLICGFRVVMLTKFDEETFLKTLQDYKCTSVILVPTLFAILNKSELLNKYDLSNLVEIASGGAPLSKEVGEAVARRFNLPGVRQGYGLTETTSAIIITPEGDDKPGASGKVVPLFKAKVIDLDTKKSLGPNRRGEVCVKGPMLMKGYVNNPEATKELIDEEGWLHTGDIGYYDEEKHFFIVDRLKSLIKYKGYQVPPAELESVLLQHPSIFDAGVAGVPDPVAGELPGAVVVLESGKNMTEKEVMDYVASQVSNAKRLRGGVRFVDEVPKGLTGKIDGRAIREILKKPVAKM

[3] = molecular target: T1, American firefly luciferase; assay: stopped-flow inhibition of initial ATP-induced light output; photolabeling with LC-MSMS also done; type: biochemical
[4] = molecular target: T1, American firefly luciferase; assay: equilibrium photolabeling with LC-MSMS; type: binding

T1 sequence (P08659 whole entry): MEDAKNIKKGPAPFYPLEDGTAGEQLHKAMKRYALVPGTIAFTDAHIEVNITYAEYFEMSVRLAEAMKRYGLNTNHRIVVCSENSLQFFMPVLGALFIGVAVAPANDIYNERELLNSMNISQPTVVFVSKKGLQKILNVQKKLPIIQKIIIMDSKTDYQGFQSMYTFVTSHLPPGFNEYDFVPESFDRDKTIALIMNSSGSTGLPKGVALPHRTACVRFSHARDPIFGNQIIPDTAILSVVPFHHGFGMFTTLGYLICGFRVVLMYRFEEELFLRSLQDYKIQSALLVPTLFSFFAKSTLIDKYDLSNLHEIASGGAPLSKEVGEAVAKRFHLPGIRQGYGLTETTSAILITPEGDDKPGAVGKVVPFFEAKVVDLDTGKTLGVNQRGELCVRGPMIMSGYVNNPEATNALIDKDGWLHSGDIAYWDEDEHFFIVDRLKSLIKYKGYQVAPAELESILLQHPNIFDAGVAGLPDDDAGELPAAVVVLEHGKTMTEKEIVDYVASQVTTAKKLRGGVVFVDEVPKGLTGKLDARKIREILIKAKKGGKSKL

## CCCCCCCCO [1-octanol]
[1]
  IC50: ~ 225 µM

## CCCCCC1(CCO)N=N1 [3-azioctanol, 3-(2-hydroxyethyl)-3-n-pentyldiazirine]
[2]
  Kd: > 1000 µM
[3]
  IC50: 200 ± 46 µM

## CC1(CCCCCCO)N=N1 [7-azioctanol]
[4]
  equilibrium photolabeling with LC-MSMS: photolabeled the American firefly luciferase at equilibrium with the azialkanols, and found the labeling pattern to be identical
